Experimental findings from US20110171136A1, “OPTICAL IMAGING PROBES” (priority 2002, published 2011) are described below.

The test system of the experiment is A431 cells. Put plainly: in vitro uptake competition experiments with glucose. Type of experiment: cell-based, human. The note with it: 1 mM (monovalent) or 0.7 mM (bivalent) probe, 30 minutes, 50 and 100 mM glucose respectively, FIGS. 3B and 3D. The protocol: The A431 cell line was obtained from the American Type Culture Collection and grown in DMEM with 4.5 g/l glucose, supplemented with 10% fetal bovine serum (Life Technologies, NY) and cultured in a humidified atmosphere containing 5% CO2 and 95% air at 37° C.
Utilizing the monovalent and bivalent Cy5.5-conjugated glucose probes, in vitro uptake competition experiments were performed by incubating A431 cells with 1 mM (monovalent) or 0.7 mM (bivalent) of each probe, for 30 minutes, in the presence of 50 and 100 mM glucose, respectively. After removal of the medium, cells were rinsed with ice-cold PBS and visualized under confocal microscopy. […] Under the same conditions, free Cy5.5 uptake by A431 cells was not inhibited by incubation with glucose.

For `CCN1\C(=C/C=C/C=C/C2=[N+](CCCCCC(=O)O)c3ccc4c(S(=O)(=O)O)cc(S(=O)(=O)O)cc4c3C2(C)C)C(C)(C)c2c1ccc1c(S(=O)(=O)[O-])cc(S(=O)(=O)O)cc21` [free Cy5.5], the “inhibition of cellular uptake of probe by glucose” value is reported as “not inhibited”.
